Laboratory results: ChEMBL document CHEMBL4483862, “Open-source discovery of chemical leads for next-generation chemoprotective antimalarials” (2018)

Tested on: Plasmodium berghei
Test: Luciferase/luciferin-expressing antifolate-resistant parasites were used to infect a culture of HepG2 cells that were pre-incubated with compounds. Infected hepatocytes emit light due to the luciferase reaction. Assay results are presented as the percent inhibition of light emission compared to control. […]
Format: functional
Settings: sporozoite; for IC50: read-out: LUCIFERASE INFECTION ASSAY - IC50; for IC90: read-out: LUCIFERASE INFECTION ASSAY - IC90

Compound: COc1ccc(Cc2nnc(S)n2NC(=O)Nc2ccc(Cl)c(Cl)c2)cc1
- IC50: > 10 µM
- IC90: > 10 µM

Compound: CN(C)c1nc(C=C(C#N)C#N)c(Cl)n1-c1ccc(F)cc1
- IC50: > 10 µM
- IC90: > 10 µM

Compound: O=C(Nc1nnc(C2CC2)s1)c1cccc(S(=O)(=O)N2CCc3ccccc32)c1
- IC50: > 10 µM
- IC90: > 10 µM

Compound: Cn1c(N)c(C(=O)COC(=O)C2(c3ccccc3F)CCCC2)c(=O)n(C)c1=O
- IC50: > 10 µM
- IC90: > 10 µM

Compound: CN(C)c1ccc(/C=C/c2ccc3c4ccccc4ccc3[n+]2-c2ccccc2)cc1
- IC50: 1.07 µM
- IC90: 1.23 µM

Compound: FC(F)Oc1ccc(-c2cs/c(=N\c3cccnc3)n2CC2CCCO2)cc1 (stereo unspecified)
- IC50: 4.16 µM
- IC90: > 10 µM

Compound: C=CCn1c(SCC(=O)Nc2nnc(-c3ccccc3)o2)nc2cc(Cl)ccc2c1=O
- IC50: > 10 µM
- IC90: > 10 µM

Compound: N#CC(C(=O)COC(=O)c1nc(-c2ccccc2)n(-c2ccccc2)n1)=C1Nc2ccccc2N1
- IC50: > 10 µM
- IC90: > 10 µM

Compound: Cc1ccc(-c2cs/c(=N\c3ccc(C)c(C)c3)n2/N=C/c2ccc(O)cc2O)cc1
- IC50: > 10 µM
- IC90: > 10 µM

Compound: CCOC(=O)c1c(NC(=O)C(C)OC(=O)c2ccccc2Sc2ccccc2C#N)sc2c1CCCC2 (stereo unspecified)
- IC50: > 10 µM
- IC90: > 10 µM

Compound: Cc1cc(C)c(C)c(S)c1C
- IC50: > 10 µM
- IC90: > 10 µM

Compound: O=C(N/N=C/c1ccc([N+](=O)[O-])o1)c1ccc(CN2C(=O)c3cccc4cccc2c34)cc1
- IC50: > 10 µM
- IC90: > 10 µM

Compound: CCCCc1ccc(NC(=O)/C(C#N)=C/c2ccccc2Cl)cc1
- IC50: > 10 µM
- IC90: > 10 µM

Compound: CCCCOc1ccc(/C=N/Nc2ccc([N+](=O)[O-])cc2)cc1
- IC50: > 10 µM
- IC90: > 10 µM

Compound: CCN(c1ccccc1)S(=O)(=O)c1cc(NC(=O)CNCc2ccco2)ccc1Cl
- IC50: > 10 µM
- IC90: > 10 µM

Compound: Oc1c(C(c2ccc(Cl)cc2Cl)N2CCOCC2)ccc2cccnc12 (stereo unspecified)
- IC50: 4.36 µM
- IC90: 8.77 µM

Compound: CCn1c(-c2ccccc2)c(C(=O)COC(=O)c2c(NC(C)=O)sc3c2CCCC3)c2ccccc21
- IC50: > 10 µM
- IC90: > 10 µM

Compound: CCOC(=O)c1c(C)[nH]c(C(=O)C(C)Sc2nnc(-c3ccccc3)c(-c3ccccc3)n2)c1C (stereo unspecified)
- IC50: > 10 µM
- IC90: > 10 µM

Compound: COc1ccccc1NC(=O)c1ccc(NC(=O)Cn2ncc(Cl)c(Cl)c2=O)cc1
- IC50: 3.41 µM
- IC90: 4.54 µM

Compound: COc1ccc(S(=O)(=O)N(CC(=O)c2cc(C)n(-c3ccc(Cl)cc3)c2C)Cc2ccccc2)cc1
- IC50: > 10 µM
- IC90: > 10 µM

Compound: N#CC(C(=O)COC(=O)c1cn(-c2ccccc2)nc1-c1ccccc1)=C1Nc2ccccc2N1
- IC50: > 10 µM
- IC90: > 10 µM

Compound: O=C(Nc1nc(-c2ccco2)c(-c2ccco2)s1)c1cnc(Cl)c(Cl)c1
- IC50: > 10 µM
- IC90: > 10 µM

Compound: N=C1C(c2nc3ccccc3[nH]2)C(=O)CN1NC(=O)Cn1nnc(-c2cccc(C(F)(F)F)c2)n1 (stereo unspecified)
- IC50: > 10 µM
- IC90: > 10 µM

Compound: O=C(Nc1nc2c(s1)CCCC2)c1cc(F)c(F)c(F)c1F
- IC50: 0.081 µM
- IC90: 0.624 µM

Compound: CC(C)c1ccc2c(c1)/C(=N/Nc1ccc(S(=O)(=O)Nc3ccc(Cl)cc3)cc1[N+](=O)[O-])C(=O)N2
- IC50: > 10 µM
- IC90: > 10 µM

Compound: Cc1ccc(S(=O)(=O)c2nc(-c3ccccc3)oc2S(=O)(=O)CC(=O)NC(C)C)cc1
- IC50: > 10 µM
- IC90: > 10 µM

Compound: Cc1nn(-c2cccc(C(F)(F)F)c2)c2sc(C(=O)NC(=S)N(C)C3CCCCC3)cc12
- IC50: 1.09 µM
- IC90: 1.27 µM

Compound: O=C(COC(=O)c1ccccc1Nc1cccc(C(F)(F)F)c1)c1ccc(C2CCCCC2)cc1
- IC50: > 10 µM
- IC90: > 10 µM

Compound: CCOc1cc(C(=O)N/N=C2/C(=O)N(C(C)C)c3ccccc32)cc(OCC)c1OCC
- IC50: > 10 µM
- IC90: > 10 µM

Compound: Cn1c(CC(=O)NNC(=O)/C=C/c2cccc(C(F)(F)F)c2)nc2ccccc21
- IC50: 3.4 µM
- IC90: 3.99 µM

Compound: O=S(=O)(c1ccc(NC(=S)N/N=C2\CC(c3ccccc3)Oc3ccccc32)cc1)N1CCOCC1 (stereo unspecified)
- IC50: 8.98 µM
- IC90: > 10 µM

Compound: Cc1cc(C(=O)COC(=O)c2ccccc2OCC(=O)Nc2cccc(C(F)(F)F)c2)c(C)n1CC1CCCO1 (stereo unspecified)
- IC50: > 10 µM
- IC90: > 10 µM

Compound: C=CC/N=c1\scc(-c2ccc(Br)s2)n1/N=C/c1ccccn1
- IC50: 3.59 µM
- IC90: 4.27 µM

Compound: CC1C/C(=C\c2ccco2)c2nc3ccccc3c(C(=O)OCC(=O)N3CC(=O)Nc4ccccc43)c2C1 (stereo unspecified)
- IC50: > 10 µM
- IC90: > 10 µM

Compound: O=C(/C=C/C1=C(N2CCOCC2)C(=C\c2ccc(Cl)cc2)/CC1)C(F)(F)F
- IC50: > 10 µM
- IC90: > 10 µM

Compound: C=CCN(c1cccc(C(F)(F)F)c1)S(=O)(=O)c1cc(C(=O)Nc2ccc3c(c2)CCC3)ccc1Cl
- IC50: > 10 µM
- IC90: > 10 µM

Compound: Cc1nc2ccc(N/N=C(/C(=O)Nc3c(Cl)cccc3Cl)C(=O)c3ccccc3)cc2s1
- IC50: 5.17 µM
- IC90: 8.28 µM

Compound: CC(C)c1nnc(SCC(=O)Nc2ccc([N+](=O)[O-])cc2)[nH]1
- IC50: > 10 µM
- IC90: > 10 µM
